Measurements: US20260076975A1, “TPK AGONIST AND METHOD FOR USING SAME TO TREAT NEURODEGENERATIVE DISEASES” (SHANGHAI RAISING PHARMACEUTICAL CO., LTD., priority 2022, published 2026)
Where two headings read alike, the source gives them in different places.

Target: TPK enzyme (Homo sapiens, UniProt Q9H3S4)
Experiment: TPK enzyme activity test (TDP formation from thiamine and ATP, HPLC detection)
Assay type: biochemical
Method: The purpose of this example was to test the promoting effect of compounds on TPK enzyme activity and evaluate the in vitro activity of the compounds based on EC50 and Emax.
1.1) The constant-temperature water-bath shaker was pre-heated half an hour in advance at a pre-heating temperature of 37° C.
1.2) The stock solution of the compound to be tested was taken out, allowed to thaw at room temperature, and then diluted to the required concentration.
1.3) The required reagents were placed on ice to thaw.
2.1) For each reaction system, TPK enzyme solution, Tris-HCl buffer solution, and ATP solution were added. The concentration of ATP used was 1-500 mM. The above three solutions were formulated into a homogeneous mixture.
2.2) The mixture of the above three solutions was dispensed into centrifuge tubes. Then, the compound at the required concentration was added to each centrifuge tube. Finally, thiamine solution (1-100 μM) was added. After the addition of the above system was completed, the centrifuge tubes were tightly capped, inserted into a floating board, and placed in the constant-temperature water-bath shaker that had been pre-heated to 37° C. for incubation for 0.5-2.0 hours.
2.3) After the incubation was completed, perchloric acid stop solution was added and mixed well. Samples were taken into 1.5 mL centrifuge tubes and stored at −20° C.
3.1) The samples stored at −20° C. were taken out, thawed at room temperature, and then subjected to derivatization treatment. The samples were placed in centrifuge tubes, a potassium ferricyanide derivatization reagent was added, and finally phosphoric acid stop solution was added to stop the reaction.
3.2) The derivatized samples were placed in sample vials for liquid chromatography analysis, and the contents of TDP/thiamine were detected by high performance liquid chromatography. TKP enzyme activity=TDP (nM)/mg protein/min.
The effects of the compounds of the present invention on TPK enzyme activity at different concentrations were determined according to the above procedures.

[1] = promoting effect on TPK enzyme activity
[2] = promoting effect on TPK enzyme activity, calculated with the effect of DMSO on TPK enzyme activity as 100%, read-out: Emax

TPK enzyme, sequence (Q9H3S4 whole entry): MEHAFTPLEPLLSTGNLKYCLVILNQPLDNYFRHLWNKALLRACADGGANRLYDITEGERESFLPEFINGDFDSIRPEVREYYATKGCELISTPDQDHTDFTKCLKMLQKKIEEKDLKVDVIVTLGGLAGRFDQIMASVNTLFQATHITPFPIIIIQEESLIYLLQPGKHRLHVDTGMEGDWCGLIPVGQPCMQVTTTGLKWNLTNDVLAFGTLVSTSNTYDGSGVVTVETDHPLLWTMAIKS

With O=C1CCc2ccc(OC#CCCN3CCN(c4cccc(Cl)c4Cl)CC3)cc2N1 [Compound 1, 7-((4-(4-(2,3-dichlorophenyl)piperazin-1-yl)but-1-yn-1-yl)oxy)-3,4-dihydroquinolin-2(1H)-one] the EC50 [1] was 1160 nM and the Emax [2] was 183%.

In the case of O=C1CCc2ccc(OCCCCN3CCN(c4cccc(Cl)c4Cl)CC3)cc2N1 [Compound 2], the EC50 [1] is reported as 460 nM and the Emax [2] is reported as 155%.

For O=C1CCc2ccc(OCCCCCCN3CCN(c4cccc(Cl)c4Cl)CC3)cc2N1 [Compound 3, 7-((6-(4-(2,3-dichlorophenyl)piperazin-1-yl)hexyl)oxy)-3,4-dihydroquinolin-2(1H)-one], the Emax [2] was 205%.

O=C1CCc2ccc(OCCCCCN3CCN(c4cccc(Cl)c4Cl)CC3)cc2N1 [Compound 4, 7-((5-(4-(2,3-dichlorophenyl)piperazin-1-yl)pentyl)oxy)-3,4-dihydroquinolin-2(1H)-one] showed an EC50 [1] of 1040 nM and an Emax [2] of 194%.

Compound O=C1CCc2ccc(OCCCN3CCN(c4cccc(Cl)c4Cl)CC3)cc2N1 [Compound 5] has an EC50 [1] of 1200 nM and an Emax [2] of 184%.

With O=C1CCc2ccc(OCCCCN3CCN(c4cccc(C(F)(F)F)c4)CC3)cc2N1 [Compound 6, 7-(4-(4-(3-(trifluoromethyl)phenyl)piperazin-1-yl)butoxy)-3,4-dihydroquinolin-2(1H)-one] the EC50 [1] was 1270 nM and the Emax [2] was 215%.

O=C1CCc2ccc(OCCCCCN3CCN(c4cccc(C(F)(F)F)c4)CC3)cc2N1 [Compound 7, 7-((5-(4-(3-(trifluoromethyl)phenyl)piperazin-1-yl)pentyl)oxy)-3,4-dihydroquinolin-2(1H)-one] was tested, and the EC50 [1] was 1180 nM and the Emax [2] was 224%.

For O=c1ccc2ccc(OCCCCN3CCN(c4cccc(Cl)c4Cl)CC3)cc2[nH]1 [Compound 10, 7-(4-(4-(2,3-dichlorophenyl)piperazin-1-yl)butoxy)quinolin-2(1H)-one], the EC50 [1] was 130 nM and the Emax [2] was 183%.

O=C1CCc2ccc(OCCCCN3CCC(c4cccc(Cl)c4Cl)CC3)cc2N1 [Compound 19] showed an EC50 [1] of 5010 nM and an Emax [2] of 196%.

Compound O=C1CCc2ccc(OCC(=O)NC3CCC(c4cccc(Cl)c4Cl)CC3)cc2N1 (stereo not shown) [Compound 21, N-(4-(2,3-dichlorophenyl)cyclohexyl)-2-((2-oxo-1,2,3,4-tetrahydroquinolin-7-yl)oxy)acetamide] has an EC50 [1] of 1060 nM and an Emax [2] of 166%.

O=C1NCCc2ccc(OCCCCN3CCN(c4cccc(Cl)c4Cl)CC3)cc21 [Compound 22] gave an EC50 [1] of 1190 nM and an Emax [2] of 167%.

With O=C1NCCc2ccc(OCCCCCN3CCN(c4cccc(Cl)c4Cl)CC3)cc21 [Compound 23, 7-((5-(4-(2,3-dichlorophenyl)piperazin-1-yl)pentyl)oxy)-3,4-dihydroisoquinolin-1(2H)-one] the EC50 [1] was 1010 nM and the Emax [2] was 226%.

Compound O=C1Cc2ccc(OCCCCN3CCN(c4cccc(Cl)c4Cl)CC3)cc2N1 [Compound 24, 6-(4-(4-(2,3-dichlorophenyl)piperazin-1-yl)butoxy)indolin-2-one] has an Emax [2] of 189%.

Work on O=C1Cc2ccc(OCCCCN3CCN(c4cccc(C(F)(F)F)c4)CC3)cc2N1 [Compound 25, 6-(4-(4-(3-(trifluoromethyl)phenyl)piperazin-1-yl)butoxy)indolin-2-one] yielded an EC50 [1] of 754 nM and an Emax [2] of 138%.

With O=C1COc2ccc(OCCCCN3CCN(c4cccc(Cl)c4Cl)CC3)cc2N1 [Compound 26] the EC50 [1] was 1220 nM and the Emax [2] was 190%.

Clc1cccc(N2CCN(CCCOc3ccc4ncsc4c3)CC2)c1Cl [Compound 28, 6-(3-(4-(2,3-dichlorophenyl)piperazin-1-yl)propoxy)benzo[d]thiazole] showed an EC50 [1] of 1540 nM and an Emax [2] of 185%.

For Clc1cccc(N2CCN(CCCCOc3ccc4ncsc4c3)CC2)c1Cl [Compound 29, 6-(4-(4-(2,3-dichlorophenyl)piperazin-1-yl)butoxy)benzo[d]thiazole], the EC50 [1] was 2280 nM and the Emax [2] was 191%.

Compound CC1(C)CCC(C)(C)c2cc(NC(=O)C=CC(=O)N3CCN(c4cccc(Cl)c4Cl)CC3)ccc21 [Compound 30, 4-(4-(2,3-dichlorophenyl)piperazin-1-yl)-4-oxo-N-(5,5,8,8-tetramethyl-5,6,7,8-tetrahydronaphthalen-2-yl)but-2-enamide] has an Emax [2] of 132%.

In the case of CC1(C)CCC(C)(C)c2cc(NC(=O)CCC(=O)N3CCN(c4cccc(Cl)c4Cl)CC3)ccc21 [Compound 31, 4-(4-(2,3-dichlorophenyl)piperazin-1-yl)-4-oxo-N-(5,5,8,8-tetramethyl-5,6,7,8-tetrahydronaphthalen-2-yl)butanamide], the Emax [2] is reported as 124%.

O=C1CCc2ccc(OCCN3CCN(c4nc5ccccc5s4)CC3)cc2N1 [Compound 34, 7-(2-(4-(benzo[d]thiazol-2-yl)piperazin-1-yl)ethoxy)-3,4-dihydroquinolin-2(1H)-one] was tested, and the EC50 [1] was 1300 nM and the Emax [2] was 189%.

O=c1ccc2ccc(OCCN3CCN(c4nc5ccccc5s4)CC3)cc2[nH]1 [Compound 35, 7-(2-(4-(benzothiazol-2-yl)piperazin-1-yl)ethoxy)quinolin-2(1H)-one] showed an EC50 [1] of 1370 nM and an Emax [2] of 163%.

In the case of O=C1CCc2ccc(OCCCCN3CCN(c4nc5ccccc5s4)CC3)cc2N1 [Compound 36, 7-(4-(4-(benzo[d]thiazol-2-yl)piperazin-1-yl)butoxy)-3,4-dihydroquinolin-2(1H)-one], the EC50 [1] is reported as 1320 nM and the Emax [2] is reported as 139%.

With O=c1ccc2ccc(OCCCCN3CCN(c4nc5ccccc5s4)CC3)cc2[nH]1 [Compound 37, 7-(4-(4-(benzo[d]thiazol-2-yl)piperazin-1-yl)butoxy)quinolin-2(1H)-one] the EC50 [1] was 1170 nM and the Emax [2] was 224%.

O=C1CCc2ccc(OCCCN3CCN(c4nc5ccccc5s4)CC3)cc2N1 [Compound 38, 7-(3-(4-(benzo[d]thiazol-2-yl)piperazin-1-yl)propoxy)-3,4-dihydroquinolin-2(1H)-one] was tested, and the EC50 [1] was 1180 nM and the Emax [2] was 157%.

Work on Cc1cc2c(s1)Nc1ccccc1N=C2N1CCN(CCCOc2ccc3c(c2)NC(=O)CC3)CC1 [Compound 40, 7-(3-(4-(2-methyl-10H-benzo[b]thieno[2,3-e][1,4]diazepin-4-yl)piperazin-1-yl)propoxy)-3,4-dihydroquinolin-2(1H)-one] yielded an Emax [2] of 122%.

Cc1cc2c(s1)Nc1ccccc1N=C2N1CCN(CCCCOc2ccc3c(c2)NC(=O)CC3)CC1 [Compound 42, 7-(4-(4-(2-methyl-10H-benzo[b]thieno[2,3-e][1,4]diazepin-4-yl)piperazin-1-yl)butoxy)-3,4-dihydroquinolin-2(1H)-one] was tested, and the EC50 [1] was 1000 nM and the Emax [2] was 170%.

O=C1Cc2ccc(OCCCCN3CCN(c4nc5ccccc5s4)CC3)cc2N1 [Compound 44, 6-(4-(4-(benzo[d]thiazol-2-yl)piperazin-1-yl)butoxy)indolin-2-one] gave an EC50 [1] of 1140 nM and an Emax [2] of 235%.

Compound Cc1cccc(NC(=O)CSCC(=O)N2CCN(c3cc(C(F)(F)F)cc(C(F)(F)F)c3)CC2)c1 [Compound 45, 2-((2-(4-(3,5-bis(trifluoromethyl)phenyl)piperazin-1-yl)-2-oxoethyl)thio)-N-(m-tolyl)acetamide] has an EC50 [1] of 1070 nM and an Emax [2] of 152%.

In the case of Cc1cccc(NC(=O)CSCC(=O)N2CCN(c3cccc(Cl)c3Cl)CC2)c1 [Compound 46], the EC50 [1] is reported as 1310 nM and the Emax [2] is reported as 149%.

Work on COc1ccc(NC(=O)CN2CCN(c3cccc(Cl)c3Cl)CC2)cc1N [Compound 47, N-(3-amino-4-methoxyphenyl)-2-(4-(2,3-dichlorophenyl)piperazin-1-yl)acetamide] yielded an EC50 [1] of 4650 nM and an Emax [2] of 199%.

Compound COc1ccc(NC(=O)CN2CCN(c3cccc(Cl)c3Cl)CC2)cc1N(C)C [Compound 48, 2-(4-(2,3-dichlorophenyl)piperazin-1-yl)-N-(3-(dimethylamino)-4-methoxyphenyl)acetamide] has an EC50 [1] of 3800 nM and an Emax [2] of 156%.

With CNc1cc(NC(=O)CCN2CCN(c3cccc(Cl)c3Cl)CC2)ccc1OC [Compound 50, 3-(4-(2,3-dichlorophenyl)piperazin-1-yl)-N-(4-methoxy-3-(methylamino)phenyl)propanamide] the Emax [2] was 128%.

For O=C(NCCCCN1CCN(c2cc(C(F)(F)F)cc(C(F)(F)F)c2)CC1)c1ccc(Cl)cc1 [Compound 53, N-(4-(4-(3,5-bis(trifluoromethyl)phenyl)piperazin-1-yl)butyl)-4-chlorobenzamide], the Emax was 133%.

For O=C(/C=C/c1cc(O)c(O)c(O)c1)N1CCN(c2cccc(Cl)c2Cl)CC1 [Compound 55, (E)-1-(4-(2,3-dichlorophenyl)piperazin-1-yl)-3-(3,4,5-trihydroxyphenyl)prop-2-en-1-one], the Emax [2] was 134%.

Work on O=C(/C=C/c1ccc(O)c(O)c1)N1CCN(c2cccc(Cl)c2Cl)CC1 [Compound 56] yielded an Emax [2] of 180%.

For COc1cc(/C=C/C(=O)N2CCN(c3cccc(Cl)c3Cl)CC2)cc(OC)c1OC [Compound 57], the Emax [2] was 135%.

Work on COc1ccc(/C=C/C(=O)N2CCN(c3cccc(Cl)c3Cl)CC2)cc1OC [Compound 58] yielded an EC50 [1] of 1200 nM and an Emax [2] of 223%.
